The results in this text go back to US4001237A, “Oxazole, isoxazole, thiazole and isothiazole amides” (priority 1976, dated 1977).

Assay [1] concerns the target T1, α-adrenergic receptor (Rattus norvegicus, UniProt P43140).
T1 construct: Seminal vesicles were removed and transfered to a shallow dish containing modified Tyrode's solution; from tissue; host or cells: isolated seminal vesicle of male Long Evans rats
T1 sequence (P43140 1-466): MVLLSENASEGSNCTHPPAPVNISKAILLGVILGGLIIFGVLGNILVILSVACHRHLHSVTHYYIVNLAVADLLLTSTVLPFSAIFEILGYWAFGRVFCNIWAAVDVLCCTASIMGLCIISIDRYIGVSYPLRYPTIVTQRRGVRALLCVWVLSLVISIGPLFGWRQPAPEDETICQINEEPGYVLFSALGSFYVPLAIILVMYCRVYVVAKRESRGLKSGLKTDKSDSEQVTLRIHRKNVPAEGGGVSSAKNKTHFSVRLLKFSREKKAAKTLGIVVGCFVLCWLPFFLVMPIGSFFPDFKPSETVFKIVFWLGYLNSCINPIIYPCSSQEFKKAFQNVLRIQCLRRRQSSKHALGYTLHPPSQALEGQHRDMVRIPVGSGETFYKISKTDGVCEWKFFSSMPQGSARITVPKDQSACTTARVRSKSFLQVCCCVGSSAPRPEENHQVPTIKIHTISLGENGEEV
The assay is described as follows: Isolated rat seminal vesicle assay: inhibition of norepinephrine induced contractions. To be noted: relative to prazosin; test compound 10 nanograms/ml; shift of norepinephrine ED50, rat seminal vesicle. Format: cell-based. As to the method:
(§1) In the following table, antihypertensive acitvity was determined by oral administration to spontaneous hypertensive rats, and the in vitro and in vivo α-adrenergic receptor blocking effect was determined by tests described following the table. In the in vitro test, the inhibition by the test drug of norepinephrine induced contractions of rat seminal vesicles was measured; and in the in vivo test, the inhibition by the test drug of norepinephrine induced pressor responses in anesthetized dogs was measured.
Dangan et al., Int. j. […] Lietch et al., Brit.
Male Long Evans rats weighing approximately 300 g. were sacrificed by a sharp blow on the head. Seminal vesicles were removed and transfered to a shallow dish containing modified Tyrode's solution. The vesicles were emptied of their contents by squeezing them gently with a pair of forceps. Silk thread (4-0) was attached to both ends of the vesicle and it was suspended in a 20 ml. muscle chamber containing modified oxygenated Tyrode's solution (g./liter: NaCl 8, KCl 0.2, CaCl2 0.26, NaHCO3 1, Na2 HPO4 0.575, glucose 0.5 and MgCl2 0.02). The bathing fluid was maintained at 37° C. with a thermostatically controlled isolated organ tissue bath. Contractions were recorded isometrically by means of a force displacement transducer and recordings were made with a Beckman RP Dynograph. Norepinephrine (NE) was added to the muscle chamber in volumes ranging from 0.1 to 0.4 ml. with a 1 ml. syringe attached to a 3 inch 20 gauge needle. NE and test compounds were dissolved in deionized water.
NE dose response curves were obtained alone and in the presence of test compounds. NE was allowed to remain in contact with the strip until a maximal contraction was obtained. The strip was then washed with the perfusion fluid for 15-30 seconds and the preparation was allowed to return to base line before a subsequent dose of NE was given. Increasing amounts of NE were injected into the bath in the same manner until a complete dose response was obtained.
The seminal vesicles used to obtain the control NE dose response were discarded and new preparations were placed in the tissue bath for evaluation of the test compound. The test compound was added directly to the perfusion fluid (10 nanograms/ml.) and the strips were allowed to remain in contact with the bathing media for at least 10 minutes before the NE dose response was determined. Seminal vesicles from the same rat were used for control and for test drug.
ED50 values for NE were obtained by regression analysis as described by Finney, Probit, Analysis, 2d Ed., Cambridge (1964). A minimum of 4 strips and at least 4 doses were employed to calculate the regression lines. The ED50 value is defined as the concentration of NE which produces a contraction equal to 50% of the maximal contraction.

The test system of assay [2] is α-adrenergic receptor. In words: Anesthetized dog assay for α-adrenergic blocking agents: inhibition of norepinephrine induced pressor responses. Format: in vivo. The conditions noted are these: relative to prazosin; test drug 3 mg./kg. iv; norepinephrine dose raising blood pressure by 50 mm. of Hg; anesthetized dogs. As for the experimental part: as §1
Thus, blood pressure responses to norepinephrine (NE) in anesthetized dogs was used as a comparative assay for α-adrenergic receptor blocking properties of drugs.
Experiments were done on mongrel dogs anesthetized with sodium pentobarbital, 30 mg./kg. iv. The left femoral artery was cannulated to record aortic blood pressure and a femoral vein was cannulated for administration of drugs. All animals underwent a bilateral vagotomy. A norepinephrine dose-response curve was obtained by administering increasing doses of iv norepinephrine (0.01 - 1 μg./kg.). The test drug was then administered iv at 3 mg./kg. Approximately 30 minutes later a dose-response curve was again established for iv norepinephrine (0.01-10 μg./kg.).

The subject of assay [3] is spontaneous hypertensive rats. In words: Antihypertensive activity by oral administration to spontaneous hypertensive rats. Format: in vivo, rat. To be noted: for change in vivo at 1 mg/kg / change in vivo at 3 mg/kg / change in vivo at 10 mg/kg: Rattus norvegicus, read-out: Antihypertensive Activity % Blood Pressure Change. As to the method:
as §1

The mark [4] stands for this setting: dose 1 mg/kg, oral, spontaneous hypertensive rats.
The mark [5] stands for this setting: dose 3 mg/kg, oral, spontaneous hypertensive rats.
Where [6] appears, read: dose 10 mg/kg, oral, spontaneous hypertensive rats.
The mark [7] stands for this setting: oral, spontaneous hypertensive rats.

SMILES strings stand for the structures. Structures can show the parent of a compound that is named as a salt. Where two headings read alike, the source gives them in different places.

As for `COc1cc2nc(N3CCN(C(=O)c4ccno4)CC3)nc(N)c2cc1OC` [Example 1, 4-Amino-6,7-dimethyoxy-2-[4-(isoxazole-5-carbonyl)-piperazine-1-yl]quinazoline Hydrochloride], the “α-Adrenergic Receptor Blocking Effect In Vitro Activity Ratio” value on α-adrenergic receptor [1] turned out to be 0.11. In the assay on α-adrenergic receptor [2], the “α-Adrenergic Receptor Blocking Effect In Vivo Activity Ratio” value is given as 0.18. In addition, in assay [3] (setting [4]), the change in vivo at 1 mg/kg is -15%. In addition, the change in vivo at 3 mg/kg in assay [3] (setting [5]) is -26%. The change in vivo at 10 mg/kg in assay [3] (setting [6]) is -35%.

Regarding `COc1cc2nc(N3CCN(C(=O)c4ccon4)CC3)nc(N)c2cc1OC` [Example 2, 4-Amino-6,7-dimethoxy-2-[4-(isoxazole-3-carbonyl)-piperazin-1-yl]quinazoline Hydrochloride], the change in vivo at 1 mg/kg in assay [3] (setting [4]) is -12%. For the same compound, the change in vivo at 3 mg/kg in assay [3] (setting [5]) is -26%. Moreover, the change in vivo at 10 mg/kg in assay [3] (setting [6]) is -32%.

As to `COc1cc2nc(N3CCN(C(=O)c4cnoc4)CC3)nc(N)c2cc1OC.Cl` [Example 3, 4-Amino-6,7-dimethoxy-2-[4-(isoxazole-4-carbonyl)-piperazin-1-yl]quinazoline Hydrochloride], on α-adrenergic receptor [1], the “α-Adrenergic Receptor Blocking Effect In Vitro Activity Ratio” value was 0.92. The change in vivo at 1 mg/kg in assay [3] (setting [4]) was -13%. Also, in assay [3] (setting [5]), the change in vivo at 3 mg/kg was -23%. The change in vivo at 10 mg/kg in assay [3] (setting [6]) was -35%.

In the case of `COc1cc2nc(N3CCN(C(=O)c4cc(C)on4)CC3)nc(N)c2cc1OC.Cl` [Example 4, 4-Amino-6,7-dimethoxy-2-[4-(5-methylisoxazole-3-carbonyl)piperazin-1-yl]quinazoline Hydrochloride], the “α-Adrenergic Receptor Blocking Effect In Vivo Activity Ratio” value in the assay with α-adrenergic receptor [2] is given as 0.24. The change in vivo at 1 mg/kg in assay [3] (setting [4]) is -14%. For the same compound, in assay [3] (setting [5]), the change in vivo at 3 mg/kg is -18%. Further, the change in vivo at 10 mg/kg in assay [3] (setting [6]) is -41%.

Take `COc1cc2nc(N3CCN(C(=O)c4conc4C)CC3)nc(N)c2cc1OC.Cl` [Example 5, 4-Amino-6,7-dimethoxy-2-[4-(3-methylisoxazole-4-carbonyl)piperazin-1-yl]quinazoline Hydrochloride]: the “α-Adrenergic Receptor Blocking Effect In Vitro Activity Ratio” value at α-adrenergic receptor [1] turned out to be 0.30. Also, the “α-Adrenergic Receptor Blocking Effect In Vivo Activity Ratio” value with α-adrenergic receptor [2] is reported as 0.18. Also, the change in vivo at 1 mg/kg in assay [3] (setting [4]) is -17%. In addition, the change in vivo at 3 mg/kg in assay [3] (setting [5]) was -29%. Besides, in assay [3] (setting [6]), the change in vivo at 10 mg/kg is -33%.

For the compound `COc1cc2nc(N3CCN(C(=O)c4cc(C)no4)CC3)nc(N)c2cc1OC.Cl` [Example 6, 4-Amino-6,7-dimethoxy-2-[4-(3-methylisoxazole-5-carbonyl)piperazin-1-yl]quinazoline Hydrochloride], the “α-Adrenergic Receptor Blocking Effect In Vitro Activity Ratio” value on α-adrenergic receptor [1] is recorded as 0.25. In addition, the change in vivo at 1 mg/kg in assay [3] (setting [4]) is -18%. Further, in assay [3] (setting [5]), the change in vivo at 3 mg/kg was -21%. For the same compound, in assay [3] (setting [6]), the change in vivo at 10 mg/kg is -37%.

`COc1cc2nc(N3CCN(C(=O)c4coc(C)n4)CC3)nc(N)c2cc1OC.Cl` [Example 8, 4-Amino-6,7-dimethoxy-2-[4-(2-methyloxazole-4-carbonyl)piperazin-1-yl]quinazoline Hydrochloride]: at α-adrenergic receptor [1], the “α-Adrenergic Receptor Blocking Effect In Vitro Activity Ratio” value turned out to be 0.17. Moreover, the change in vivo at 1 mg/kg in assay [3] (setting [4]) was -13%. Besides, the change in vivo at 3 mg/kg in assay [3] (setting [5]) was -31%. For the same compound, the change in vivo at 10 mg/kg in assay [3] (setting [6]) was -35%.

For the compound `COc1cc2nc(N3CCN(C(=O)c4ocnc4C)CC3)nc(N)c2cc1OC.Cl` [Example 9, 4-Amino-6,7-dimethoxy-2-[4-(4-methyloxazole-5-carbonyl)piperazin-1-yl]quinazoline Hydrochloride], at α-adrenergic receptor [1], the “α-Adrenergic Receptor Blocking Effect In Vitro Activity Ratio” value is given as 0.19. The change in vivo at 1 mg/kg in assay [3] (setting [4]) was -14%. In addition, the change in vivo at 3 mg/kg in assay [3] (setting [5]) was -26%. In assay [3] (setting [6]), the change in vivo at 10 mg/kg was -41%.

As to `COc1cc2nc(N3CCN(C(=O)c4cnsc4)CC3)nc(N)c2cc1OC.Cl` [Example 10, 4-Amino-6,7-dimethoxy-2-[4-(isothiazole-4-carbonyl)piperazin-1-yl)quinazoline Hydrochloride], the change in vivo at 1 mg/kg in assay [3] (setting [4]) is -14%. The change in vivo at 3 mg/kg in assay [3] (setting [5]) is -23%. Also, in assay [3] (setting [6]), the change in vivo at 10 mg/kg is -25%. The “"plateauing" dose response effect on blood pressure lowering” value in assay [3] (setting [7]) was “maximum blood pressure lowering effect is seen at 3 mg./kg. which could not be increased at higher doses”.

For the compound `COc1cc2nc(N3CCN(C(=O)c4nccs4)CC3)nc(N)c2cc1OC` [Example 11, 4-Amino-6,7-dimethoxy-2-[4-thiazole-2-carbonyl)piperazin-1-yl]quinazoline Hydrochloride], the change in vivo at 1 mg/kg in assay [3] (setting [4]) was -14%. In assay [3] (setting [5]), the change in vivo at 3 mg/kg was -27%. Moreover, the change in vivo at 10 mg/kg in assay [3] (setting [6]) is -33%.

Turning to `COc1cc2nc(N3CCN(C(=O)c4cscn4)CC3)nc(N)c2cc1OC` [Example 12], the “α-Adrenergic Receptor Blocking Effect In Vitro Activity Ratio” value at α-adrenergic receptor [1] is listed as 0.12. In assay [3] (setting [4]), the change in vivo at 1 mg/kg was -20%. Moreover, the change in vivo at 3 mg/kg in assay [3] (setting [5]) is -24%. In addition, the change in vivo at 10 mg/kg in assay [3] (setting [6]) was -32%.

As for `COc1cc2nc(N3CCN(C(=O)c4csc(C)n4)CC3)nc(N)c2cc1OC` [Example 13, 4-Amino-6,7-dimethyoxy-2-[4-(2-methylthiazole-4-carbonyl)piperazin-1-yl]quinazoline Hydrochloride], the “α-Adrenergic Receptor Blocking Effect In Vitro Activity Ratio” value at α-adrenergic receptor [1] was 0.02. Also, the change in vivo at 1 mg/kg in assay [3] (setting [4]) is -19%. Also, the change in vivo at 3 mg/kg in assay [3] (setting [5]) was -28%. Also, in assay [3] (setting [6]), the change in vivo at 10 mg/kg was -28%. Also, the “"plateauing" dose response effect on blood pressure lowering” value in assay [3] (setting [7]) is “maximum blood pressure lowering effect is seen at 3 mg./kg. which could not be increased at higher doses”.

Take `COc1cc2nc(N3CCN(C(=O)c4cncs4)CC3)nc(N)c2cc1OC.Cl` [Example 14, 4-Amino-6,7-dimethoxy-2-[4-(thiazole-5-carbonyl)piperazin-1-yl]quinazoline Hydrochloride]: the “α-Adrenergic Receptor Blocking Effect In Vitro Activity Ratio” value at α-adrenergic receptor [1] is 0.10. Further, the change in vivo at 1 mg/kg in assay [3] (setting [4]) was -12%. For the same compound, the change in vivo at 3 mg/kg in assay [3] (setting [5]) was -22%. Further, the change in vivo at 10 mg/kg in assay [3] (setting [6]) is -33%.

Take `COc1cc2nc(N3CCN(C(=O)c4scnc4C)CC3)nc(N)c2cc1OC.Cl` [Example 16, 4-Amino-6,7-dimethoxy-2-[4-(4-methylthiazole-5-carbonyl)piperazin-1-yl]quinazoline Hydrochloride]: the “α-Adrenergic Receptor Blocking Effect In Vitro Activity Ratio” value on α-adrenergic receptor [1] turned out to be 0.35. For the same compound, in assay [3] (setting [4]), the change in vivo at 1 mg/kg is -4%. Moreover, the change in vivo at 3 mg/kg in assay [3] (setting [5]) is -22%. The change in vivo at 10 mg/kg in assay [3] (setting [6]) is -28%.

As for `COc1cc2nc(N3CCN(C(=O)c4ccco4)CC3)nc(N)c2cc1OC` [Prazosin, 2-[4-(2-furoyl)-piperazin-1-yl]-4-amino-6,7-dimethoxyquinazoline, reference compound], in assay [3] (po), the change in vivo at 1 mg/kg is -14%, the change in vivo at 3 mg/kg is -29% and the change in vivo at 10 mg/kg is -42%.
